What follows are compounds tested against T1, GAL4-DBD/RORγ-LBD (Homo sapiens, UniProt P51449) (assay: RORγt transactivation reporter assay (GAL4-DBD/RORγ-LBD, luciferase read out)). Settings: HEK293T cells, GAL4-UAS luciferase reporter, overnight (18-24 hours) incubation.
T1 construct: expressed in transfected cells; host or cells: HEK293T
T1 sequence (P51449 269-508 limits assumed): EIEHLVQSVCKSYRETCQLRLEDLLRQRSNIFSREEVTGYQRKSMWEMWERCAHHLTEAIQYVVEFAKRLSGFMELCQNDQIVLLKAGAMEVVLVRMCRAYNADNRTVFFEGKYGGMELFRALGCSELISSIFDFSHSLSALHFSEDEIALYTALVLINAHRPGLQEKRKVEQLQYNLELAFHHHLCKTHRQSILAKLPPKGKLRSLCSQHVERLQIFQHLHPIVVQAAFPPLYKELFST
T1 sequence (P04386 1-147 partner limits assumed): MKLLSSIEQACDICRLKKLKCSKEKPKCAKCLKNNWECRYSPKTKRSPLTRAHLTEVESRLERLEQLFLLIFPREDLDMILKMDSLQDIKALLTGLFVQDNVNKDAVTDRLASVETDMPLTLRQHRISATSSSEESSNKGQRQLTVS
Format: cell-based
Procedure: RORγt Transactivation Reporter Assay Protocol: The inhibition of RORγt activity in cells was evaluated using a GAL4-UAS reporter system in HEK293T cells employing a luciferase read out. RORγt ligand binding domain (LBD) was cloned into the pFN26A (BIND) vector (Promega #[…]) containing yeast GAL4-DBD to form a RORγt LBD-GAL4 DBD fusion construct. This vector also contained a Renilla Luciferase reporter expressed under a SV40 promoter which was used as a control for transfection efficiency. A transcriptional reporter expression construct pGL4.35 (Promega #[…]) was used to monitor RORγt LBD-GAL4 activity. This construct contained nine repeats of GAL4 binding site/upstream activating sequence (UAS) controlling expression of a firefly luciferase reporter Luc2P. When transfected together in cells, the RORγ-LBD-DBD fusion protein drives expression of the luciferase reporter. For the assay, HEK293T cells were plated in a flat bottom 96 well plate at a density of 25,000 cells/well/100 ul of DMEM high glucose medium (Sigma D5648) containing 10% FBS and antibiotic. Cells were incubated overnight at 37 C/5% CO2. The next day, medium from the wells was removed and replaced with 30 ul of OptiMEM® (Invitrogen #31985070). 100 ng each of pBIND RORγ LBD-DBD and pGL4.35 reporter plasmids was transfected in HEK293T cells using Lipofectamine 2000 (Invitrogen #11668-019) where 10 ul of transfection complex was added to the each well. Control transfections were performed with an empty pF[…] vector and pGL4.35 vector. The transfected cells were incubated for 5 hours at 37 C/5% CO2. After incubation, 40 ul of DMEM high glucose medium without FBS, with antibiotic was added to each well. A 10 mM stock solution of test compound prepared in 100% DMSO was first diluted in DMSO and then in DMEM medium without FBS to give the required final compound concentration. Concentration of DMSO in the test compound solution was 0.4%. 20 ul of diluted compound solution was added to each well. Cells were incubated overnight (18-24 hours) at 37 C/5% CO2. The next day, luciferase assay was performed using the Dual Glo® Luciferase Assay System (Promega #E2940). Briefly, medium was removed from the wells and replaced with 40 ul 1× Passive Lysis Buffer (Promega #E1941). Plate was incubated at room temperature on a plate shaker at 1000 rpm for 40 min. After incubation, plate was centrifuged at 1000 rpm for 2 min. 20 ul of the lysate was transferred from each well to that of solid white half area 96 well plate (Costar #3693). Dual Glo® Reagent was thawed to room temperature and 20 ul was added to each well containing lysate. Plate was centrifuged at 1000 rpm/2 min and incubated at room temperature on a plate shaker at 600 rpm/25 min. Firefly luciferase signal was measured on a Tecan Safire2. After measurement, 20 ul of Dual Glo® Stop Glo® Reagent was added to each well. Plate was centrifuged at 1000 rpm/2 min and incubated at room temperature on a plate shaker at 600 rpm/25 min. Renilla luciferase signal was measured on Tecan Safire 2. IC50 values for test compounds were calculated from the normalized luciferase signal data using GraphPad Prism software.
For “4-[3-(2,6-dichlorobenzoyl)-6-(4H-1,2,4-triazol-3-yl)indolizin-1-yl]benzoic acid [Example D-10]”, the IC50 was less than 500 nM. `O=C(O)c1ccc(-c2cc(C(=O)c3c(Cl)cccc3Cl)n3cc(C(=O)N4CCC4)ccc23)cc1` [Example D-6, 4-[6-(azetidine-1-carbonyl)-3-(2,6-dichlorobenzoyl)indolizin-1-yl]benzoic acid] gave an IC50 of less than 500 nM. In the case of `Cc1c(-c2ccc(C(=O)O)cc2F)c2n(c1C(=O)c1c(Cl)cccc1Cl)CCCC2` [Example H-2, 4-[3-(2,6-dichlorobenzoyl)-2-methyl-5,6,7,8-tetrahydroindolizin-1-yl]-3-fluoro-benzoic acid], the IC50 is reported as less than 500 nM. With `O=C(O)c1cccc(-c2cc(C(=O)c3c(Cl)cccc3C(F)(F)F)n3ccccc23)c1` [Example A-57, 3-[3-[2-chloro-6-(trifluoromethyl)benzoyl]indolizin-1-yl]benzoic acid] the IC50 was greater than 5000 nM. “ethyl 4-[3-(2-chloro-6-fluoro-benzoyl)indolizin-1-yl]-3-fluoro-benzoate [Example A-25]” was tested, and the IC50 was less than 500 nM. `O=C(O)c1ccc(-c2cc(C(=O)c3c(Cl)cccc3Cl)n3cc(C(F)(F)F)ccc23)cc1` [Example A-63, 4-[3-(2,6-dichlorobenzoyl)-6-(trifluoromethyl)indolizin-1-yl]benzoic acid] showed an IC50 of less than 5000 nM. In the case of `CCOC(=O)c1ccc(-c2cc(C(=O)c3c(Cl)cccc3C(F)(F)F)n3ccccc23)cc1` [Example A-1, Ethyl 4-[3-[2-chloro-6-(trifluoromethyl)benzoyl]indolizin-1-yl]benzoate], the IC50 is reported as less than 500 nM. With `CCOC(=O)c1ccc(-c2cc(C(=O)c3c(F)ccc(F)c3F)n3ccccc23)c(F)c1` [Example A-41, ethyl 3-fluoro-4-[3-(2,3,6-trifluorobenzoyl)indolizin-1-yl]benzoate] the IC50 was less than 500 nM. For “4-[3-(2,6-dibromobenzoyl)indolizin-1-yl]benzoic acid [Example A-53]”, the IC50 was less than 5000 nM. Compound “4-[3-(2,6-dichloro-3-fluoro-benzoyl)-5,6,7,8-tetrahydroindolizin-1-yl]benzoic acid [Example H-3]” has an IC50 greater than 5000 nM. With `CCOC(=O)c1ccc(-c2cc(C(=O)c3c(F)cccc3F)n3cccc(F)c23)cc1` [Example A-45, ethyl 4-[3-(2,6-difluorobenzoyl)-8-fluoro-indolizin-1-yl]benzoate] the IC50 was less than 500 nM. `O=C(O)c1ccc(-c2nc(C(=O)c3c(Cl)ccc(F)c3Cl)n3ccccc23)cc1` [Example I-1, Sodium 4-[3-(2,6-dichloro-3-fluoro-benzoyl)imidazo[1,5-a]pyridin-1-yl]benzoate] showed an IC50 of less than 500 nM. `O=C(O)c1ccc(-c2cc(C(=O)c3c(Cl)cccc3Cl)n3cc(C(=O)NCCO)ccc23)cc1` [Example D-7, 4-[3-(2,6-dichlorobenzoyl)-6-(2-hydroxyethylcarbamoyl)indolizin-1-yl]benzoic acid] showed an IC50 greater than 5000 nM. Work on `COC(=O)c1ccc(-c2c(F)c(C(=O)c3c(Cl)cccc3Cl)n3ccccc23)c(F)c1` [Example B-3, methyl 4-[3-(2,6-dichlorobenzoyl)-2-fluoro-indolizin-1-yl]-3-fluoro-benzoate] yielded an IC50 of less than 500 nM. Compound `COC1CN(C(=O)c2ccc3c(-c4ccc(C(=O)O)cc4)cc(C(=O)c4c(Cl)cccc4Cl)n3c2)C1` [Example D-14, 4-[3-(2,6-dichlorobenzoyl)-6-(3-methoxyazetidine-1-carbonyl)indolizin-1-yl]benzoic acid] has an IC50 of less than 500 nM. With `O=C(O)c1ccc(-c2cc(C(=O)c3c(F)cccc3F)n3ccccc23)c(F)c1` [Example A-39, 4-[3-(2,6-difluorobenzoyl)indolizin-1-yl]-3-fluoro-benzoic acid] the IC50 was less than 500 nM. Work on “(2,6-dichlorophenyl)-[1-(4-methylsulfonylphenyl)indolizin-3-yl]methanone [Example A-20]” yielded an IC50 greater than 5000 nM. With `CCOC(=O)c1ccc(-c2cc(C(=O)c3c(Cl)cccc3Cl)n3cc(C(F)(F)F)ccc23)cc1` [Example A-64, ethyl 4-[3-(2,6-dichlorobenzoyl)-6-(trifluoromethyl)indolizin-1-yl]benzoate] the IC50 was less than 500 nM. Work on `CCS(=O)(=O)N1CC=C(c2cc(C(=O)c3c(Cl)cccc3Cl)n3ccccc23)CC1` [Example G-1, (2,6-dichlorophenyl)-[1-(1-ethylsulfonyl-3,6-dihydro-2H-pyridin-4-yl)indolizin-3-yl]methanone] yielded an IC50 greater than 5000 nM. For `O=C(O)c1ccc(-c2c(F)c(C(=O)c3c(Cl)ccc(F)c3Cl)n3ccccc23)cc1` [Example B-6, 4-[3-(2,6-dichloro-3-fluoro-benzoyl)-2-fluoro-indolizin-1-yl]benzoic acid], the IC50 was less than 500 nM. `O=C(O)c1ccc(-c2cc(C(=O)c3c(F)cccc3F)n3cccc(F)c23)cc1` [Example A-47, 4-[3-(2,6-difluorobenzoyl)-8-fluoro-indolizin-1-yl]benzoic acid] showed an IC50 of less than 500 nM. Compound `O=C(O)c1cc(F)c(-c2cc(C(=O)c3c(Cl)cccc3Cl)n3ccccc23)c(F)c1` [Example A-9, 4-[3-(2,6-dichlorobenzoyl)indolizin-1-yl]-3,5-difluoro-benzoic acid] has an IC50 of less than 500 nM. Work on `CCOC(=O)c1ccc(-c2c(F)c(C(=O)c3c(Cl)cccc3Cl)n3ccccc23)cc1` [Example B-1, Ethyl 4-[3-(2,6-dichlorobenzoyl)-2-fluoro-indolizin-1-yl]benzoate] yielded an IC50 of less than 500 nM. In the case of `CCOC(=O)c1ccc(-c2c(C)c(C(=O)c3c(Cl)ccnc3Cl)n3ccccc23)cc1` [Example C-10, ethyl 4-[3-(2,4-dichloropyridine-3-carbonyl)-2-methyl-indolizin-1-yl]benzoate], the IC50 is reported as less than 5000 nM. `CCOC(=O)c1ccc(-c2c(C)c(C(=O)c3c(Cl)cccc3Cl)n3ccccc23)c(F)c1` [Example C-1, ethyl 4-[3-(2,6-dichlorobenzoyl)-2-methyl-indolizin-1-yl]-3-fluoro-benzoate] was tested, and the IC50 was less than 500 nM. Compound `O=C(O)c1ccc(-c2cc(C(=O)c3c(Cl)cccc3C(F)(F)F)n3ccccc23)cc1F` [Example A-60, 4-[3-[2-chloro-6-(trifluoromethyl)benzoyl]indolizin-1-yl]-2-fluoro-benzoic acid] has an IC50 of less than 500 nM. In the case of `O=C(O)c1ccc(-c2cc(C(=O)c3c(F)ccc(F)c3F)n3ccccc23)cc1` [Example A-42, 4-[3-(2,3,6-trifluorobenzoyl)indolizin-1-yl]benzoic acid], the IC50 is reported as less than 500 nM. With `CCOC(=O)c1ccc(-c2cc(C(=O)c3c(C)cccc3Cl)n3ccccc23)cc1` [Example A-14, ethyl 4-[3-(2-chloro-6-methyl-benzoyl)indolizin-1-yl]benzoate] the IC50 was less than 500 nM. With `CC(C)(C)OC(=O)N1CCC=C(c2cc(C(=O)c3c(Cl)ccc(F)c3Cl)n3ccccc23)C1` [Example A-55, tert-butyl 5-[3-(2,6-dichloro-3-fluoro-benzoyl)indolizin-1-yl]-3,6-dihydro-2H-pyridine-1-carboxylate] the IC50 was greater than 5000 nM. For `O=C(O)c1ccc(-c2cc(C(=O)c3c(Cl)ccc(F)c3Cl)n3cccc(F)c23)cc1` [Example A-43, 4-[3-(2,6-dichloro-3-fluoro-benzoyl)-8-fluoro-indolizin-1-yl]benzoic acid], the IC50 was less than 500 nM. For `COC(=O)c1ccc(-c2cc(C(=O)c3c(Cl)cccc3C(F)(F)F)n3ccccc23)c(F)c1` [Example A-11, methyl 4-[3-[2-chloro-6-(trifluoromethyl)benzoyl]indolizin-1-yl]-3-fluoro-benzoate], the IC50 was less than 500 nM. `O=C(O)c1ccc(-c2cc(C(=O)c3c(Cl)cccc3Cl)n3cccc(F)c23)cc1` [Example A-23, 4-[3-(2,6-dichlorobenzoyl)-8-fluoro-indolizin-1-yl]benzoic acid] was tested, and the IC50 was less than 500 nM. `O=C(O)c1ccc(-c2cc(C(=O)c3c(Cl)ccc(F)c3Cl)n3ccccc23)cc1` [Example A-19, 4-[3-(2,6-dichloro-3-fluoro-benzoyl)indolizin-1-yl]benzoic acid] showed an IC50 of less than 500 nM. `CCOC(=O)c1ccc(-c2c(C)c(C(=O)c3c(Cl)cccc3Cl)n3ccccc23)cc1` [Example C-3, ethyl 4-[3-(2,6-dichlorobenzoyl)-2-methyl-indolizin-1-yl]benzoate] was tested, and the IC50 was less than 500 nM.

Reference: patent publication US10435402B2, “Bicyclic compounds, compositions and medicinal applications thereof” (Advinus Therapeutics Limited, priority 2015, dated 2019)
